Assay results as given in US12173018B2, “Penicillin-binding protein inhibitors” (priority 2018, dated 2024).
Converted amounts (≈) assume the structure as drawn. Like-named read-outs stand apart in the source and are kept apart here.

Legend:
P. aeruginosa PAO1 = assay: Broth microdilution MIC, P. aeruginosa PAO1; format: cell-based; conditions: Pseudomonas aeruginosa
Protocol: (§1) To determine the ability of test compounds to potentiate the inhibition of the growth of bacterial strains, classic cell based broth microdilution minimum inhibitory concentration (MIC) assays were employed. MIC assays are performed according to CLSI methods except where otherwise noted (CLSI, 2011 and CLSI, 2009). The reference type strain E. coli ATCC 25922, the wild-type parent strain E. coli AG100, the hyper-permeable E. coli 901C and E. coli D22 and the E. coli AG100A strain lacking the acrAB efflux pump encoding genes were used to determine the ability of the PBP inhibitors to penetrate the outer membrane of gram-negative bacteria and inhibit bacterial growth. […] The P. aeruginosa PAO1, P. aeruginosa ATCC 27853 and A. baumannii ATCC 19606, along with the hyper-permeable P. aeruginosa ATCC 35151 and an engineered efflux pump-compromised strain of P. aeruginosa (ΔmexAB-oprM) were used to determine the ability of PBP inhibitors to penetrate the outer membrane of P. aeruginosa and A. baumannii and assess antibacterial activity against these important gram-negative organisms.
(§2) Briefly, cryo-preserved bacterial cultures of challenge strains are streaked for isolation on appropriate agar medium, in this case Mueller Hinton II agar. Following incubation to allow growth of the colonies, plates are sealed with parafilm and stored refrigerated for up to two weeks. For preparation of assay inoculum and to ensure low variability, at least 5 colonies are picked from the agar plates with an inoculating loop and aseptically transferred to a culture tube containing 3 mL of Mueller-Hinton Broth (supplemented with divalent cations to required levels based on Manufacturers' certification). The broth culture is grown for 3-5 hours at 37° C. with shaking at 200 rpm. Meanwhile, 2-fold serial dilutions of test compounds are conducted in a 96 well plate with a final volume of 75 μL per well at 2-fold the final desired concentration. After the dilution plates are set up the growing cultures are then diluted in a cuvette containing MH II broth and the optical density is measured at 600 nm. The Inoculum is diluted such that 75 μL of this culture in Mueller-Hinton Broth results in a starting bacterial concentration of 5×10^5 CFU/mL when added to the dilution plates. The plates are incubated for 16-20 hours at 37° C. The MIC values are read visually as the lowest concentration well with no bacterial growth.

[1] = tested on: P. aeruginosa (ΔmexAB-oprM); assay: microbe, parasite or virus in culture; format: cell-based; conditions: Pseudomonas aeruginosa, read-out: MIC P. aeruginosa ΔmexAB-OprM
Method in brief: (§3)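 CLSI broth microdilution in cation-supplemented Mueller-Hinton broth; 2-fold compound dilutions inoculated at 5×10^5 CFU/mL from a 3-5 h log-phase culture. Plates incubated 16-20 hours at 37° C; MIC read visually as lowest concentration with no growth.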

P. aeruginosa ATCC 35151 = assay: microbe, parasite or virus in culture; format: cell-based; conditions: Pseudomonas aeruginosa, ATCC35151; hyper-permeable P. aeruginosa ATCC 35151; read-out: MIC P. aeruginosa ATCC 35151
Method in brief: as §3

[2] = tested on: engineered strain of Escherichia coli harboring CTX-M15; assay: microbe, parasite or virus in culture; format: cell-based; conditions: Escherichia coli, read-out: Microbiological Activity (MIC in mg/L), E. coli DH5α/pLBII-CTX-M15, engineered strain producing CTX-M15
K. pneumoniae 848844 = assay: microbe, parasite or virus in culture; format: cell-based, Klebsiella pneumoniae; conditions: Klebsiella pneumoniae; K. pneumoniae 848844 producing SHV-11 and KPC-2; read-out: MIC K. pneumoniae 848844
Method in brief: as §3

E. coli ATCC 25922 = assay: Broth microdilution MIC, E. coli ATCC 25922; format: cell-based; conditions: Escherichia coli
Method in brief: as §3

A. baumannii ATCC 19606 = assay: Broth microdilution MIC, A. baumannii ATCC 19606; format: cell-based; conditions: Acinetobacter baumannii
Protocol: as §1, §2

E. coli PBP3 = E. coli PBP3 (Escherichia coli (strain K12), UniProt P0AD68); assay: E. coli PBP3 Bocillin-FL fluorescence polarization competition binding assay
E. coli PBP3, sequence (P0AD68 whole entry): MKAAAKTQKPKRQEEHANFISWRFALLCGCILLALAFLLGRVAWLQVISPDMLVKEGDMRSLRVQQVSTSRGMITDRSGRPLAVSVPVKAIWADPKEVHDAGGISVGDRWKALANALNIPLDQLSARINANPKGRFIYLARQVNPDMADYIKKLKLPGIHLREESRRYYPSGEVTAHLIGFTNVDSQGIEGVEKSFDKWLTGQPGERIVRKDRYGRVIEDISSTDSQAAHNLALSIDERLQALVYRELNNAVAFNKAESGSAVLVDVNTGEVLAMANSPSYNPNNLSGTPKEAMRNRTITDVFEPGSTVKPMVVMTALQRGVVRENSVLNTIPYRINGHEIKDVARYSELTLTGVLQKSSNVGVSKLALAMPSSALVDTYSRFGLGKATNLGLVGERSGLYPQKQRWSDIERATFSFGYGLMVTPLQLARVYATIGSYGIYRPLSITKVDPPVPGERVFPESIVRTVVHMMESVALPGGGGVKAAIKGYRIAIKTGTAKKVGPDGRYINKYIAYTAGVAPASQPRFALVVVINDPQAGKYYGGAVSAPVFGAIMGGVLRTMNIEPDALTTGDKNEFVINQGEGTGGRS
Method in brief: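 This was a fluorescence polarization competition with fluorescent penicillin Bocillin-FL (0.1 μM final), read at 490/520 nm for 60 min immediately after its addition. The buffer was Hepes pH 8.0 with 300 mM NaCl and 5% glycerol, containing 1.5 μM PBP and test inhibitor up to 1000 μM. Potency is expressed as EC50 for reducing probe binding.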

E. coli AG100A = assay: microbe, parasite or virus in culture; format: cell-based; conditions: Escherichia coli, read-out: MIC E. coli AG100A
Method in brief: as §3

E. coli 901C = assay: microbe, parasite or virus in culture; format: cell-based; conditions: Escherichia coli; hyper-permeable E. coli 901C, broth microdilution; read-out: MIC E. coli 901C
Method in brief: as §3

K. pneumoniae SI-117 = assay: microbe, parasite or virus in culture; format: cell-based; conditions: Klebsiella pneumoniae, SI117, read-out: MIC K. pneumoniae SI-117
Method in brief: as §3

E. coli D22 = assay: microbe, parasite or virus in culture; format: cell-based; conditions: Escherichia coli; hyper-permeable E. coli D22, broth microdilution; read-out: MIC E. coli D22
Method in brief: as §3

K. pneumoniae UMM = assay: microbe, parasite or virus in culture; format: cell-based; conditions: Klebsiella pneumoniae; K. pneumoniae UMM producing SHV-5 and KPC-2; read-out: MIC K. pneumoniae UMM
Method in brief: as §3

E. coli AG100 = assay: Broth microdilution MIC, E. coli AG100 (wild-type parent); format: cell-based; conditions: Escherichia coli; wild-type parent E. coli AG100, broth microdilution; read-out: MIC E. coli AG100
Method in brief: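 Broth microdilution in cation-supplemented Mueller-Hinton broth, 2-fold serial compound dilutions, inoculum 5×10^5 CFU/mL from 3-5 h log culture.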

[3] = PAO1, read-out: MIC P. aeruginosa PAO1
[4] = ATCC25922, E. coli ATCC 25922, broth microdilution, read-out: MIC E. coli 25922
[5] = P. aeruginosa PAO1, broth microdilution, read-out: MIC P. aeruginosa PAO1
[6] = ATCC19606, A. baumannii ATCC 19606, broth microdilution, read-out: MIC A. baumannii ATCC 19606
[7] = fluorescence polarization competition binding with Bocillin-FL, read-out: E. coli K12 PBP3 Potency

| Structure (SMILES) | MIC (P. aeruginosa PAO1; [3]) [µg/mL] | MIC [1] [µg/mL] | MIC (P. aeruginosa ATCC 35151) [µg/mL] | MIC [2] [mg/L] | MIC (K. pneumoniae 848844) [µg/mL] | MIC (E. coli ATCC 25922; [4]) [µg/mL] | MIC (P. aeruginosa PAO1; [5]) [µg/mL] | MIC (A. baumannii ATCC 19606; [6]) [µg/mL] | EC50 (E. coli PBP3) [µM] | MIC (E. coli AG100A) [µg/mL] | MIC (E. coli 901C) [µg/mL] | MIC (K. pneumoniae SI-117) [µg/mL] | MIC (E. coli D22) [µg/mL] | MIC (K. pneumoniae UMM) [µg/mL] | MIC (E. coli AG100) [µg/mL] | MIC (E. coli ATCC 25922; ATCC25922, read-out: MIC E. coli 25922) [µg/mL] | MIC (A. baumannii ATCC 19606; ATCC19606, read-out: MIC A. baumannii ATCC 19606) [µg/mL] | EC50 (E. coli PBP3; [7]) [µM] |
| --- | --- | --- | --- | --- | --- | --- | --- | --- | --- | --- | --- | --- | --- | --- | --- | --- | --- | --- |
| CCN1CCN(C(=O)NC(C(=O)N[C@H]2Cc3cccc(C(=O)O)c3OB2O)c2ccc(OC)nc2Cl)C(=O)C1=O (stereo partly drawn) [Example 65, (3R)-3-(2-(2-chloro-6-methoxypyridin-3-yl)-2-(4-ethyl-2,3-dioxopiperazine-1-carboxamido)acetamido)-2-hydroxy-3,4-dihydro-2H-benzo[e][1,2]oxaborinine-8-carboxylic acid] | > 128 | 32 to 64 | 8 to 16 | 128 to 256 (≈ 223 to 446 µM) |  |  |  |  |  |  |  |  |  |  |  |  |  |  |
| CCN1CCN(C(=O)NC(C(=O)N[C@H]2Cc3ccc(F)c(C(=O)O)c3OB2O)c2ccc(O)cn2)C(=O)C1=O (stereo partly drawn) [Example 128, (3R)-3-(2-(4-ethyl-2,3-dioxopiperazine-1-carboxamido)-2-(5-hydroxypyridin-2-yl)acetamido)-7-fluoro-2-hydroxy-3,4-dihydro-2H-benzo[e][1,2]oxaborinine-8-carboxylic acid] |  | 8 to 16 | 0.5 to 1 |  | 32 to 64 | 32 to 64 | > 128 | > 128 | 30 to 500 | 2 to 4 | 0.5 to 1 | 8 to 16 | 2 to 4 | 8 to 16 | 8 to 16 |  |  |  |
| CCN1CCN(C(=O)N[C@@H](C(=O)N[C@H]2Cc3cccc(C(=O)O)c3OB2O)c2ccc(S(N)(=O)=O)c(OC)c2)C(=O)C1=O [Example 169, (R)-3-((R)-2-(4-ethyl-2,3-dioxopiperazine-1-carboxamido)-2-(3-methoxy-4-sulfamoylphenyl)acetamido)-2-hydroxy-3,4-dihydro-2H-benzo[e][1,2]oxaborinine-8-carboxylic acid] |  | 8 to 16 | 0.5 to 1 |  | > 128 | 32 to 64 | > 128 | > 128 | 30 to 500 | 8 to 16 | < 0.25 | > 128 | 2 to 4 | > 128 | 32 to 64 |  |  |  |
| NS(=O)(=O)c1ccc([C@@H](NC(=O)N2CCN(CCBr)C(=O)C2=O)C(=O)N[C@H]2Cc3cccc(C(=O)O)c3OB2O)cc1O [Example 172, (R)-3-((R)-2-(4-(2-bromoethyl)-2,3-dioxopiperazine-1-carboxamido)-2-(3-hydroxy-4-sulfamoylphenyl)acetamido)-2-hydroxy-3,4-dihydro-2H-benzo[e][1,2]oxaborinine-8-carboxylic acid] | > 128 | 2 to 4 | < 0.25 |  | > 128 |  |  |  |  | 8 to 16 | 0.5 to 1 | > 128 | 8 to 16 | 32 to 64 | 32 to 64 | 32 to 64 | > 128 | < 30 |
| CCN1CCN(C(=O)NC(C(=O)N[C@H]2Cc3c(F)cc(F)c(C(=O)O)c3OB2O)c2ccc(O)c(O)c2Cl)C(=O)C1=O (stereo partly drawn) [Example 185, (3R)-3-(2-(2-chloro-3,4-dihydroxyphenyl)-2-(4-ethyl-2,3-dioxopiperazine-1-carboxamido)acetamido)-5,7-difluoro-2-hydroxy-3,4-dihydro-2H-benzo[e][1,2]oxaborinine-8-carboxylic acid] |  | 0.5 to 1 | < 0.25 |  | 0.5 to 1 | 8 to 16 | > 128 | > 128 | 30 to 500 | 2 to 4 | 0.5 to 1 | 2 to 4 | 2 to 4 | 2 to 4 | 2 to 4 |  |  |  |
| CCN1CCN(C(=O)NC(C(=O)N[C@H]2Cc3cccc(C(=O)O)c3OB2O)c2ccc(S(N)(=O)=O)cc2F)C(=O)C1=O (stereo partly drawn) [Example 203, (3R)-3-(2-(4-ethyl-2,3-dioxopiperazine-1-carboxamido)-2-(2-fluoro-4-sulfamoylphenyl)acetamido)-2-hydroxy-3,4-dihydro-2H-benzo[e][1,2]oxaborinine-8-carboxylic acid] |  | 8 to 16 | 0.5 to 1 |  | > 128 | 32 to 64 | > 128 | > 128 |  | 2 to 4 | < 0.25 | > 128 | 2 to 4 | 32 to 64 | 32 to 64 |  |  | < 30 |
| O=C(O)c1cccc2c1OB(O)[C@@H](NC(=O)C(NC(=O)N1C[C@@H]3CCCN3C(=O)C1=O)c1ccc(O)c(O)c1Cl)C2 (stereo partly drawn) [Example 222, (3R)-3-(2-(2-chloro-3,4-dihydroxyphenyl)-2-((S)-3,4-dioxooctahydropyrrolo[1,2-a]pyrazine-2-carboxamido)acetamido)-2-hydroxy-3,4-dihydro-2H-benzo[e][1,2]oxaborinine-8-carboxylic acid] |  | < 0.25 | < 0.25 |  | > 128 | > 128 | 8 to 16 | 32 to 64 | 30 to 500 | 32 to 64 | 32 to 64 | > 128 | > 128 | 32 to 64 | 32 to 64 |  |  |  |
| NCCN1CCN(C(=O)N[C@H](C(=O)N[C@H]2Cc3ccc(F)c(C(=O)O)c3OB2O)c2ncc(O)cc2F)C(=O)C1=O [Example 231, (R)-3-((S)-2-(4-(2-aminoethyl)-2,3-dioxopiperazine-1-carboxamido)-2-(3-fluoro-5-hydroxypyridin-2-yl)acetamido)-7-fluoro-2-hydroxy-3,4-dihydro-2H-benzo[e][1,2]oxaborinine-8-carboxylic acid] |  | 8 to 16 | 0.5 to 1 |  | 32 to 64 | 32 to 64 | > 128 | > 128 | 30 to 500 | 8 to 16 | 2 to 4 | 32 to 64 | 8 to 16 | 32 to 64 | 32 to 64 |  |  |  |
